Experimental data reported in patent US9856298B2 (priority 2011, dated 2018).
In brackets after ≈: the same amount, converted by molar mass. Numbered stars: 1 amine (or outer) side, 2 acyl side, 3 side chain; on linkers, the order of the positions; unused ones are H or OH. Square brackets hold non-standard residues; d marks the D form. Primed or numbered codes have the meaning given here. Peptide text beside a SMILES is read from it. * marks the point of attachment. δOrn(α-TMG) = CN(C)C(=N[C@@H](CCCN[*:1])C(=O)[*:2])N(C)C; Guan″ = guanidino group at the N-terminus, N=C(N)*; Hyp = O=C(O)[C@@H]1C[C@@H](O)CN1; Tle = CC(C)(C)[C@H](N)C(=O)O; Orn = NCCC[C@H](N)C(=O)O

tested on: Escherichia coli strain BL21AI; assay: Minimum inhibitory concentration in 1% TSB; assay type: cell-based; settings: E. coli BL21AI, 1% TSB, 20 hours at 37° C.
Experimental: To that end, the peptides were dissolved in water and diluted in a two-fold dilution series with 1% aqueous soybean medium (TSB) in sterile 96-well plates (Greiner Bio-One GmbH) from 128 μg/ml in twelve dilution steps to 62.5 ng/ml. Overnight cultures of Escherichia coli strain BL21AI were adjusted with 1% TSB to about […] colony forming units per ml. In each case 50 μl of peptide solution per well were then mixed with in each case 50 μl of the bacteria solution, in order to achieve a starting concentration of 4×10^5 bacteria per well. After incubation for 20 hours at 37° C., the absorption at 595 nm was determined (microplate reader, TECAN Trading AG).

Compound | MIC in TSB [µM]
CC(C)C[C@H](NC(=O)[C@H](Cc1ccc(O)cc1)NC(=O)[C@@H]1CCCN1C(=O)[C@@H]1CCCN1C(=O)[C@H](CCCCN)NC(=O)[C@H](CC(=O)O)NC(=O)[C@@H](N)C(C)C)C(=O)N1CCC[C@H]1C(=O)N[C@@H](CCCNC(=N)N)C(=O)N1CCC[C@H]1C(=O)N[C@@H](CCCNC(=N)N)C(=O)N1CCC[C@H]1C(=O)N1C[C@H](O)C[C@H]1C(=O)N[C@@H](CCCNC(=N)N)C(=O)N1C[C@H](O)C[C@H]1C(=O)N[C@H](C(=O)N[C@@H](Cc1ccc(O)cc1)C(=O)N[C@@H](CC(N)=O)C(=O)N[C@@H](CCCN)C(N)=O)C(C)(C)C [Onc 110] (H-VDKPPYLPRPRP[Hyp]R[Hyp][Tle]YN[Orn]-NH2) | 6.9 (≈ 16 µg/mL)
CC[C@H](C)[C@H](NC(=O)[C@H](Cc1ccc(O)cc1)NC(=O)[C@@H](NC(=O)[C@@H]1CCCN1C(=O)[C@H](CCCNC(=N)N)NC(=O)[C@H](CC(N)=O)NC(=O)[C@H](CC(N)=O)NC(=O)[C@H](CCCNC(=O)CNC(=O)[C@@H](N)CO)N=C(N(C)C)N(C)C)C(C)C)C(=O)N1CCC[C@H]1C(=O)N[C@@H](CCCNC(=N)N)C(=O)N1CCC[C@H]1C(=O)N[C@@H](CCCNC(=N)N)C(=O)N1CCC[C@H]1C(=O)N1CCC[C@H]1C(=O)N[C@@H](Cc1c[nH]cn1)C(=O)N1CCC[C@H]1C(=O)N[C@@H](CCCNC(=N)N)C(=O)N[C@@H](CC(C)C)C(=O)O [Api 137 (SG)] (H-SG[δOrn(α-TMG)]NNRPVYIPRPRPPHPRL-OH) | 0.2 (≈ 0.487 µg/mL)
Guan-O(sPEG^20000-GARSG)NNRPVYIPRPRPPHPRL-OH ({Guan″}-[Orn]NNRPVYIPRPRPPHPRL-OH; not fully specified (residue 1)) [Api 137 (sPEG^20000-GARSG)] | 10.2
Guan-O(sPEG^5000-GARSG)NNRPVYIPRPRPPHPRL-OH ({Guan″}-[Orn]NNRPVYIPRPRPPHPRL-OH; not fully specified (residue 1)) [Api 137 (sPEG^5000-GARSG)] | 3.7

same assay, conditions: compared with the unmodified peptide

Compound | Effect of peptide linker or remaining linker residues on the MIC
CC[C@H](C)[C@H](NC(=O)[C@H](Cc1ccc(O)cc1)NC(=O)[C@@H](NC(=O)[C@@H]1CCCN1C(=O)[C@H](CCCNC(=N)N)NC(=O)[C@H](CC(N)=O)NC(=O)[C@H](CC(N)=O)NC(=O)[C@H](CCCNC(=O)CNC(=O)[C@@H](N)CO)N=C(N(C)C)N(C)C)C(C)C)C(=O)N1CCC[C@H]1C(=O)N[C@@H](CCCNC(=N)N)C(=O)N1CCC[C@H]1C(=O)N[C@@H](CCCNC(=N)N)C(=O)N1CCC[C@H]1C(=O)N1CCC[C@H]1C(=O)N[C@@H](Cc1c[nH]cn1)C(=O)N1CCC[C@H]1C(=O)N[C@@H](CCCNC(=N)N)C(=O)N[C@@H](CC(C)C)C(=O)O [Api 137 (SG)] (H-SG[δOrn(α-TMG)]NNRPVYIPRPRPPHPRL-OH) | does not increase the MIC or increases it only insignificantly

tested on: not listed separately; assay: mouse serum (100%); settings: 37° C., up to 6 hours

Compound | cleaved bond
Guan-OO(tPEG^750-GRSG)NRPVYIPRPRPPHPRL-OH | R-S
tPEG^5000-GAR-VDKPPYLPRPRPPROIYNO-NH2 | R-V
sPEG^750-GAR-VDKPPYLPRPRPHypRHypTleYNO-NH2 | R-V
Guan-ONO(sPEG^750-GRSG)RPVYIPRPRPPHPRL-OH | R-S
Guan-ONO(tPEG^750-GRSG)RPVYIPRPRPPHPRL-OH | R-S
Guan-ONO(sPEG^750-GAARSG)RPVYIPRPRPPHPRL-OH | R-S
Guan-ONO(tPEG^5000-GRSG)RPVYIPRPRPPHPRL-OH | R-S
sPEG^750-GAR-VDKPPYLPRPRPPROIYNO-NH2 | R-V
Guan-OO(sPEG^750-GAARSG)NRPVYIPRPRPPHPRL-OH | R-S
Guan-ONO(tPEG^5000-GAARSG)RPVYIPRPRPPHPRL-OH | R-S
tPEG^750-GAR-VDKPPYLPRPRPHypRHypTleYNO-NH2 | R-V

Continued, values first:

cleaved bond | Compound
R-S | Guan-OO(tPEG^750-GARSG)NRPVYIPRPRPPHPRL-OH
R-S | Guan-OO(tPEG^5000-GRSG)NRPVYIPRPRPPHPRL-OH
R-S | Guan-OO(tPEG^5000-GARSG)NRPVYIPRPRPPHPRL-OH
R-S | Guan-ONO(tPEG^5000-GARSG)RPVYIPRPRPPHPRL-OH
R-S | Guan-OO(sPEG^750-GARSG)NRPVYIPRPRPPHPRL-OH
R-V | tPEG^750-GAR-VDKPPYLPRPRPPROIYNO-NH2
R-S | Guan-ONO(sPEG^750-GARSG)RPVYIPRPRPPHPRL-OH
R-S | Guan-ONO(tPEG^750-GAARSG)RPVYIPRPRPPHPRL-OH
R-S | Guan-ONO(tPEG^750-GARSG)RPVYIPRPRPPHPRL-OH
R-S | Guan-OO(tPEG^5000-GAARSG)NRPVYIPRPRPPHPRL-OH
R-S | Guan-OO(sPEG^750-GRSG)NRPVYIPRPRPPHPRL-OH
